Results as given in patent publication US7829589B2, “Sulfonamide compounds and uses thereof” (Elixir Pharmaceuticals, Inc., priority 2005, dated 2010).

molecular target: GHS-R (Homo sapiens, UniProt Q92847); assay: GHS-R antagonist activity (Ki) in a cell based assay
Method in brief: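 Transfected COS-7 cells were labelled 24 h with [^3H]-myo-inositol and preincubated 30 min at 37 °C in HEPES buffer pH 7.4 with 10 mM LiCl, optionally with 1 U/ml adenosine deaminase. Compound was applied for 45 min at 37 °C. [^3H]-inositol phosphates were extracted with perchloric acid and isolated by anion-exchange resin.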

Chain of GHS-R (Q92847 whole entry, species assumed): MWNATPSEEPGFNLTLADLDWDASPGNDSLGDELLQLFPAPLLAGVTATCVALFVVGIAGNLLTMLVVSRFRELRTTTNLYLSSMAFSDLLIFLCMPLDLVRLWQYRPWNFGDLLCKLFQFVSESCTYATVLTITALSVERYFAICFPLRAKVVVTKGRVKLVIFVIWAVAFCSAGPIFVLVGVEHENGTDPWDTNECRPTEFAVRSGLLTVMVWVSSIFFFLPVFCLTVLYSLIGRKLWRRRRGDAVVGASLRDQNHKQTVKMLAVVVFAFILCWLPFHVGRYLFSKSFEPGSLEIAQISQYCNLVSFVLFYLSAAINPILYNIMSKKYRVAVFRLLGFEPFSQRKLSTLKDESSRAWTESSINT

| Structure (SMILES) | Ki |
| --- | --- |
| CCN(CC)CCCS(=O)(=O)N[C@H](CCc1ccccc1)c1nc(-c2cccc(O)c2)n[nH]1 [Compound 121, 3-Diethylamino-propane-1-sulfonic acid {(R)-1-[5-(3-hydroxy-phenyl)-2H-[1,2,4]triazol-3-yl]-3-phenyl-propyl}-amide] | < 100 nM |
| CCN(CC)CCCS(=O)(=O)N[C@H](CCc1ccccc1)c1nc(Cc2ccsc2)n[nH]1 [Compound 122, 3-Diethylamino-propane-1-sulfonic acid [(R)-3-phenyl-1-(5-thiophen-3-ylmethyl-2H-[1,2,4]triazol-3-yl)-propyl]-amide] | < 100 nM |
| CCN(CC)CCCS(=O)(=O)N[C@H](CCc1ccccc1)c1nc(-c2cccc(SC)c2)n[nH]1 [Compound 123, 3-Diethylamino-propane-1-sulfonic acid {(R)-1-[5-(3-methylsulfanyl-phenyl)-2H-[1,2,4]triazol-3-yl]-3-phenyl-propyl}-amide] | < 100 nM |
| CCN(CC)CCCS(=O)(=O)N[C@H](CCc1ccccc1)c1nc(Cn2nnc3ccccc32)n[nH]1 [Compound 124, 3-Diethylamino-propane-1-sulfonic acid [(R)-1-(5-benzotriazol-1-ylmethyl-2H-[1,2,4]triazol-3-yl)-3-phenyl-propyl]-amide] | < 100 nM |
| CCN(CC)CCCS(=O)(=O)N[C@H](CCc1ccccc1)c1nc(-c2ccc(OC)c(C#N)c2)n[nH]1 [Compound 125, 3-Diethylamino-propane-1-sulfonic acid {(R)-1-[5-(3-cyano-4-methoxy-phenyl)-2H-[1,2,4]triazol-3-yl]-3-phenyl-propyl}-amide] | < 100 nM |
| CCN(CC)CCCS(=O)(=O)N[C@H](CCc1ccccc1)c1nc(-c2ccc(C#N)c(Cl)c2)n[nH]1 [Compound 126, 3-Diethylamino-propane-1-sulfonic acid {(R)-1-[5-(3-chloro-4-cyano-phenyl)-2H-[1,2,4]triazol-3-yl]-3-phenyl-propyl}-amide] | < 100 nM |
| CCN(CC)CCCS(=O)(=O)N[C@H](CCc1ccccc1)c1nc(Cc2c[nH]c3ccccc23)n[nH]1 [Compound 127, 3-Diethylamino-propane-1-sulfonic acid {(R)-1-[5-(1H-indol-3-ylmethyl)-2H-[1,2,4]triazol-3-yl]-3phenyl-propyl}-amide] | < 100 nM |
| CCN(CC)CCCS(=O)(=O)N[C@H](CCc1ccccc1)c1nc(-c2ccc(F)c(C#N)c2)n[nH]1 [Compound 128, 3-Diethylamino-propane-1-sulfonic acid {(R)-1-[5-(3-cyano-4-fluoro-phenyl)-2H-[1,2,4]triazol-3-yl]-3-phenyl-propyl}-amide] | < 100 nM |
| CCN(CC)CCCS(=O)(=O)N[C@H](CCc1ccccc1)c1nc(-c2ccc3sccc3c2)n[nH]1 [Compound 129, 3-Diethylamino-propane-1-sulfonic acid [(R)-1-(5-benzo[b]thiophen-5-yl-2H-[1,2,4]triazol-3-yl)-3-phenyl-propyl]-amide] | < 100 nM |
| CCN(CC)CCCS(=O)(=O)N[C@H](CCc1ccccc1)c1nc(-c2ccc3occc3c2)n[nH]1 [Compound 130, 3-Diethylamino-propane-1-sulfonic acid [(R)-1-(5-benzofuran-5-yl-2H-[1,2,4]triazol-3-yl)-3-phenyl-propyl]-amide] | < 100 nM |
| CCN(CC)CCCS(=O)(=O)N[C@H](CCc1ccccc1)c1nc(-c2cn(C)cn2)n[nH]1 [Compound 131, 3-Diethylamino-propane-1-sulfonic acid {(R)-1-[5-(1-methyl-1H-imidazol-4-yl)-2H-[1,2,4]triazol-3-yl]-3-phenyl-propyl}-amide] | < 100 nM |
| CCN(CC)CCCS(=O)(=O)N[C@H](CCc1ccccc1)c1nc(Cc2cc(F)cc(F)c2)n[nH]1 [Compound 132, 3-Diethylamino-propane-1-sulfonic acid {(R)-1-[5-(3,5-difluoro-benzyl)-2H-[1,2,4]triazol-3-yl]-3-phenyl-propyl}-amide] | < 100 nM |
| CCN(CC)CCCS(=O)(=O)N[C@H](CCc1ccccc1)c1nc(Cc2nc(C)cs2)n[nH]1 [Compound 133, 3-Diethylamino-propane-1-sulfonic acid {(R)-1-[5-(4-methyl-3H-1lambda*4*-thiazol-2-ylmethyl)-2H-[1,2,4]triazol-3-yl]-3-phenyl-propyl}-amide] | < 100 nM |
| CCN(CC)CCCS(=O)(=O)N[C@H](CCc1ccccc1)c1nc(-c2ccc3nccn3c2)n[nH]1 [Compound 134, 3-Diethylamino-propane-1-sulfonic acid {(R)-1-[5-(1H-imidazo[1,2,-a]pyridin-6-yl)-2H-[1,2,4]triazol-3-yl]-3-phenyl-propyl}-amide] | 100 to 500 nM |
| CCN(CC)CCCS(=O)(=O)N[C@H](CCc1ccccc1)c1nc(-c2cncn2C)n[nH]1 [Compound 135] | < 100 nM |
| CCN(CC)CCCS(=O)(=O)N[C@H](CCc1ccccc1)c1nc(C2CNc3ccccc3O2)n[nH]1 (stereo partly drawn) [Compound 136, 3-Diethylamino-propane-1-sulfonic acid {(R)-1-[5-(3,4-dihydro-2H-benzo[1,4]oxazin-2-yl)-2H-[1,2,4]triazol-3-yl]-3-phenyl-propyl}-amide] | < 100 nM |
| CCN(CC)CCCS(=O)(=O)N[C@H](CCc1ccccc1)c1nc(-c2csc(C)n2)n[nH]1 [Compound 137, 3-Diethylamino-propane-1-sulfonic acid {(R)-1-[5-(2-methyl-thiazol-4-yl)-2H-[1,2,4]triazol-3-yl]-3-phenyl-propyl}-amide] | < 100 nM |

| Structure (SMILES) | Ki |
| --- | --- |
| CCN(CC)CCCS(=O)(=O)N[C@H](CCc1ccccc1)c1nc(-c2ccc(OC)nc2)n[nH]1 [Compound 138, 3-Diethylamino-propane-1-sulfonic acid {(R)-1-[5-(6-methoxy-pyridin-3-yl)-2H-[1,2,4]triazol-3-yl]-3-phenyl-propyl}-amide] | < 100 nM |
| CCN(CC)CCCS(=O)(=O)N[C@H](CCc1ccccc1)c1nc(C2CCCCC2)n[nH]1 [Compound 139, 3-Diethylamino-propane-1-sulfonic acid [(R)-1-(5-cyclohexyl-2H-[1,2,4]triazol-3-yl)-3-phenyl-propyl]-amide] | < 100 nM |
| CCN(CC)CCCS(=O)(=O)N1CCC[C@H]1c1nc(Cc2ccc(Br)cc2)no1 [Compound 142, (S)-(3-{2-[3-(4-Bromo-benzyl)-[1,2,4]oxadiazol-5-yl]-pyrrolidine-1-sulfonyl}-propyl)-diethyl-amine] | 100 to 500 nM |
| CCN(CC)CCCS(=O)(=O)N1CCC[C@H]1c1nc(-c2ccc(OC)cc2)no1 [Compound 143, (S)-Diethyl-(3-{2-[3-(4-methoxy-phenyl)-[1,2,4]oxadiazol-5-yl]-pyrrolidine-1-sulfonyl}-propyl)-amine] | 100 to 500 nM |
| CCN(CC)CCCS(=O)(=O)N1CCC[C@@H]1c1nc(-c2ccc(OC)cc2)no1 [Compound 144, (R)-Diethyl-(3-{2-[3-(4-methoxy-phenyl)-[1,2,4]oxadiazol-5-yl]-pyrrolidine-1-sulfonyl}-propyl)-amine] | 100 to 500 nM |
| CCN(CC)CCCS(=O)(=O)N1CCC[C@@H]1c1nc(Cc2ccc(Br)cc2)no1 [Compound 145, (R)-(3-{2-[3-(4-Bromo-benzyl)-[1,2,4]oxadiazol-5-yl]-pyrrolidine-1-sulfonyl}-propyl)-diethyl-amine] | 100 to 500 nM |
| CCN(CC)CCCS(=O)(=O)N[C@@H](C)c1nc(Cc2ccc(Br)cc2)no1 [Compound 146, (S)-3-Diethylamino-propane-1-sulfonic acid {1-[3-(4-bromo-benzyl)-[1,2,4]oxadiazol-5-yl]-ethyl}-amide] | 100 to 500 nM |
| CCN(CC)CCCS(=O)(=O)N[C@H](C)c1nc(Cc2ccc(Br)cc2)no1 [Compound 147, (R)-3-Diethylamino-propane-1-sulfonic acid {1-[3-(4-bromo-benzyl)-[1,2,4]oxadiazol-5-yl]-ethyl}-amide] | 100 to 500 nM |
| CCN(CC)CCCS(=O)(=O)NCc1nc(-c2ccc(OC)cc2)no1 [Compound 148, 3-Diethylamino-propane-1-sulfonic acid [3-(4-methoxy-phenyl)-[1,2,4]oxadiazol-5-ylmethyl]-amide] | 500 to 1000 nM |
| CCN(CC)CCCS(=O)(=O)N1CC[C@H]1c1nc(Cc2ccc(Br)cc2)no1 [Compound 149, (S)-(3-{2-[3-(4-Bromo-benzyl)-[1,2,4]oxadiazol-5-yl]-azetidine-1-sulfonyl}-propyl)-diethyl-amine] | < 100 nM |
| CCN(CC)CCCS(=O)(=O)N[C@@H](C)c1nc(-c2ccc(OC)cc2)no1 [Compound 150, (S)-3-Diethylamino-propane-1-sulfonic acid {1-[3-(4-methoxy-phenyl)-[1,2,4]oxadiazol-5-yl]-ethyl}-amide] | 100 to 500 nM |
| CCN(CC)CCCS(=O)(=O)NCc1nc(Cc2ccc(Br)cc2)no1 [Compound 151, 3-Diethylamino-propane-1-sulfonic acid [3-(4-bromo-benzyl)-[1,2,4]oxadiazol-5-ylmethyl]-amide] | 100 to 500 nM |
| CCN(CC)CCCS(=O)(=O)N[C@H](C)c1nc(-c2ccc(OC)cc2)no1 [Compound 152, (R)-3-Diethylamino-propane-1-sulfonic acid {1-[3-(4-methoxy-phenyl)-[1,2,4]oxadiazol-5-yl]-ethyl}-amide] | 100 to 500 nM |
| CCN(CC)CCCS(=O)(=O)N1CC[C@H]1c1nc(-c2ccc(OC)cc2)no1 [Compound 153, (S)-Diethyl-(3-{2-[3-(4-methoxy-phenyl)-[1,2,4]oxadiazol-5-yl]-azetidine-1-sulfonyl}-propyl)-amine] | < 100 nM |
| CCN(CC)CCCS(=O)(=O)NC(C)(C)c1nc(Cc2ccc(Br)cc2)no1 [Compound 154, 3-Diethylamino-propane-1-sulfonic acid {1-[3-(4-bromo-benzyl)-[1,2,4]oxadiazol-5-yl]-1-methyl-ethyl}-amide] | < 100 nM |
| CCN(CC)CCCS(=O)(=O)NC(C)(C)c1nc(-c2ccc(OC)cc2)no1 [Compound 155, 3-Diethylamino-propane-1-sulfonic acid {1-[3-(4-methoxy-phenyl)-[1,2,4]oxadiazol-5-yl]-1-methyl-ethyl}-amide] | 100 to 500 nM |
| CCN(CC)CCCS(=O)(=O)NCc1nc(-c2ccc(OC)cc2)n[nH]1 [Compound 156, 3-Diethylamino-propane-1-sulfonic acid [5-(4-methoxy-phenyl)-2H-[1,2,4]triazol-3-ylmethyl]-amide] | 100 to 500 nM |
